Source: patent US9211310B2, “Use of a Chinese medicine composition in preparing medicaments for treating secondary prevention of myocardial infarction” (TASLY PHARMACEUTICAL GROUP CO., LTD, priority 2010, dated 2015)

System: patients after acute myocardial infarction
Assay: Life quality, Seattle Angina Questionnaire (SAQ), same clinical trial
Format: in vivo, human
Conditions: PP
Excerpt: 3508 patients who were in accordance with the diagnostic standards of AMI for 28 days to 2 years and differentiated as Qi deficiency and blood stagnation syndrome by TCM were studied. 0.5 g Chinese medicine composition prepared by the method of EXAMPLE 1 (Coded as QSYQ) was administrated half an hour after meal, 3 times per day.
There were 19 questions in the Seattle angina questionnaire (SAQ), including 5 parts: physical limitation (PL), anginal stability (AS), anginal frequency (AF), treatment satisfaction (TS) and disease perception (DP). After being given necessary explanation by doctors, the questions were answered independently by patients.
They included the overall survival time, angina pectoris score, TCM symptom score and life quality score, where angina pectoris score, TCM symptom score and life quality score were evaluated at randomization, in 1st, 3rd, 6th, 9th, 12th month after treatment and 18th month after follow-up.
All evaluation results of SAQ were described during the period of observation, and Wilcoxon rank sum test was used for inter-group comparison.
The evaluation results in the SAQ were depicted in different observations, and inter-group comparison was tested by Wilcoxon Rank-sum test.

SMILES: CC(=O)Oc1ccccc1C(=O)O [Control group, aspirine]
- SAQ 5th question, <1 time per week: number of patients (9 months after treatment): 412
- SAQ 5th question, No onset: % of patients (9 months after treatment): (4.66%)
- SAQ 5th question, No onset: number of patients (9 months after treatment): 67
- SAQ 5th question, ≧3 times per week: % of patients (9 months after treatment): (29.49%)
- SAQ 5th question, ≧3 times per week: number of patients (9 months after treatment): 424
- SAQ 5th question, ≧4 times per day: % of patients (9 months after treatment): (0.49%)
- SAQ 5th question, ≧4 times per day: number of patients (9 months after treatment): 7
- SAQ 6th question, Dissatisfied: % of patients (9 months after treatment): (0.07%)
- SAQ 6th question, Dissatisfied: number of patients (9 months after treatment): 1
- SAQ 6th question, Highly satisfied: % of patients (9 months after treatment): (24.93%)
- SAQ 6th question, Highly satisfied: number of patients (9 months after treatment): 359
- SAQ 6th question, Mostly dissatisfied: % of patients (9 months after treatment): (1.53%)
- SAQ 6th question, Mostly dissatisfied: number of patients (9 months after treatment): 22
- SAQ 6th question, Mostly satisfied: % of patients (9 months after treatment): (59.38%)
- SAQ 6th question, Mostly satisfied: number of patients (9 months after treatment): 855
- SAQ 6th question, Partly satisfied: % of patients (9 months after treatment): (14.10%)
- SAQ 6th question, Partly satisfied: number of patients (9 months after treatment): 203
- SAQ 7th question, Dissatisfied: % of patients (9 months after treatment): (0.07%)
- SAQ 7th question, Dissatisfied: number of patients (9 months after treatment): 1
- SAQ 7th question, Highly satisfied: % of patients (9 months after treatment): (28.44%)
- SAQ 7th question, Highly satisfied: number of patients (9 months after treatment): 409
- SAQ 7th question, Most dissatisfied: % of patients (9 months after treatment): (0.83%)
- SAQ 7th question, Most dissatisfied: number of patients (9 months after treatment): 12
- SAQ 7th question, Mostly satisfied: % of patients (9 months after treatment): (59.74%)
- SAQ 7th question, Mostly satisfied: number of patients (9 months after treatment): 859
- SAQ 7th question, Partly satisfied: % of patients (9 months after treatment): (10.92%)
- SAQ 7th question, Partly satisfied: number of patients (9 months after treatment): 157
- SAQ Question 1-1 Mildly limited, number of patients (9 months after treatment): 18
- SAQ Question 1-1 Mildly limited, percent of patients (9 months after treatment): (1.25%)
- SAQ Question 1-1 Moderately limited, number of patients (9 months after treatment): 3
- SAQ Question 1-1 Moderately limited, percent of patients (9 months after treatment): (0.21%)
- SAQ Question 1-1 Not limited, number of patients (9 months after treatment): 1366
- SAQ Question 1-1 Not limited, percent of patients (9 months after treatment): (95.06%)
- SAQ Question 1-1 Other reasons, number of patients (9 months after treatment): 3
- SAQ Question 1-1 Other reasons, percent of patients (9 months after treatment): (0.21%)
- SAQ Question 1-1 Severely limited, number of patients (9 months after treatment): 0
- SAQ Question 1-1 Severely limited, percent of patients (9 months after treatment): (0.00%)
- SAQ Question 1-1 Slightly limited, number of patients (9 months after treatment): 47
- SAQ Question 1-1 Slightly limited, percent of patients (9 months after treatment): (3.27%)
- SAQ Question 1-2 Mildly limited, number of patients (9 months after treatment): 20
- SAQ Question 1-2 Mildly limited, percent of patients (9 months after treatment): (1.39%)
- SAQ Question 1-2 Moderately limited, number of patients (9 months after treatment): 4
- SAQ Question 1-2 Moderately limited, percent of patients (9 months after treatment): (0.28%)
- SAQ Question 1-2 Not limited, number of patients (9 months after treatment): 1358
- SAQ Question 1-2 Not limited, percent of patients (9 months after treatment): (94.50%)
- SAQ Question 1-2 Other reasons, number of patients (9 months after treatment): 5
- SAQ Question 1-2 Other reasons, percent of patients (9 months after treatment): (0.35%)
- SAQ Question 1-2 Severely limited, number of patients (9 months after treatment): 0
- SAQ Question 1-2 Severely limited, percent of patients (9 months after treatment): (0.00%)
- SAQ Question 1-2 Slightly limited, number of patients (9 months after treatment): 50
- SAQ Question 1-2 Slightly limited, percent of patients (9 months after treatment): (3.48%)
- SAQ Question 1-6: Mildly limited, patients (%) (9 months after treatment): (14.59%)
- SAQ Question 1-6: Moderately limited, patients (%) (9 months after treatment): (11.31%)
- SAQ Question 1-6: Not limited, patients (%) (9 months after treatment): (38.48%)
- SAQ Question 1-6: Other reasons, patients (%) (9 months after treatment): (0.91%)
- SAQ Question 1-6: Severely limited, patients (%) (9 months after treatment): (2.30%)
- SAQ Question 1-6: Slightly limited, patients (%) (9 months after treatment): (32.40%)
- SAQ Question 1-7: Mildly limited, patients (%) (9 months after treatment): (21.63%)
- SAQ Question 1-7: Moderately limited, patients (%) (9 months after treatment): (10.88%)
- SAQ Question 1-7: Not limited, patients (%) (9 months after treatment): (18.30%)
- SAQ Question 1-7: Other reasons, patients (%) (9 months after treatment): (3.25%)
- SAQ Question 1-7: Severely limited, patients (%) (9 months after treatment): (13.71%)
- SAQ Question 1-7: Slightly limited, patients (%) (9 months after treatment): (32.23%)
- SAQ Question 1-8: Mildly limited, patients (%) (9 months after treatment): (25.11%)
- SAQ Question 1-8: Moderately limited, patients (%) (9 months after treatment): (14.11%)
- SAQ Question 1-8: Not limited, patients (%) (9 months after treatment): (12.34%)
- SAQ Question 1-8: Other limited, patients (%) (9 months after treatment): (3.76%)
- SAQ Question 1-8: Severely limited, patients (%) (9 months after treatment): (17.23%)
- SAQ Question 1-8: Slightly limited, patients (%) (9 months after treatment): (27.45%)
- 8th question: Dissatisfied, patients (%) (12 months after treatment): (0.00%)
- 8th question: Highly satisfied, patients (%) (12 months after treatment): (26.80%)
- 8th question: Mostly dissatisfied, patients (%) (12 months after treatment): (1.26%)
- 8th question: Mostly satisfied, patients (%) (12 months after treatment): (61.16%)
- 8th question: Partly satisfied, patients (%) (12 months after treatment): (10.78%)
- 9th question: Few, patients (%) (12 months after treatment): (41.42%)
- 9th question: Mild, patients (%) (12 months after treatment): (29.64%)
- 9th question: Moderate, patients (%) (12 months after treatment): (4.48%)
